Laboratory results taken from publication PMC12131194, “Rational design, synthesis, and evaluation of novel polypharmacological compounds targeting NaV1.5, KV1.5, and K2P channels for atrial fibrillation” (The Journal of Biological Chemistry, 2025).
Where two headings read alike, the source gives them in different places. Each block holds one compound with its values, some of them ahead of it.

Key:
h KV1.5 = molecular target: T1, h KV1.5 (Homo sapiens, UniProt P22460); assay: TEVC recordings in X. laevis oocytes, KV1.5; type: cell-based; details: 100 μM, +40 mV, oocytes, mean ± SD
T1 construct: h KV1.5 (KCNA5, NM_002234); expressed in transfected cells; host or cells: Xenopus laevis oocytes injected with cRNA
T1 sequence (P22460 whole entry): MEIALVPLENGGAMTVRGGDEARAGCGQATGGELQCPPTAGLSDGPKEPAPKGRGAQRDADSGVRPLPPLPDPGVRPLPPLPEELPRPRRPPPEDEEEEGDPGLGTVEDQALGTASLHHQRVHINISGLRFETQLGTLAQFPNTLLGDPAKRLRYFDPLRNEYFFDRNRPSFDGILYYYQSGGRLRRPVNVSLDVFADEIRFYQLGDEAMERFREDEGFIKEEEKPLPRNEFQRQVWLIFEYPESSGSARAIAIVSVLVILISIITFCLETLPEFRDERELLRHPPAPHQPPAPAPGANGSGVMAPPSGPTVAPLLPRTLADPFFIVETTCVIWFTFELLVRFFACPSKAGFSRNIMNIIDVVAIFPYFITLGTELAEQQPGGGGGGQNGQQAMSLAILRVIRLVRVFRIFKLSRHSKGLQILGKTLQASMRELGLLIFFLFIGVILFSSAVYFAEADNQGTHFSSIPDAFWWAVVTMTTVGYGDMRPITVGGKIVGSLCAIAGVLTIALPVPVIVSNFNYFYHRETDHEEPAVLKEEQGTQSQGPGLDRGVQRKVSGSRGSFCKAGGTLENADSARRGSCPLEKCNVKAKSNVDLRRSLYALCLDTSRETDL
Method: (§1) The two-electrode voltage clamp (TEVC) technique was used for electrophysiology tests. Channels were expressed in Xenopus laevis oocytes. The initial channel-blocking potential was assessed at 100 μM for the 10 synthesized compounds on TASK-1 and KV1.5 channels.
(§2) To obtain X. laevis oocytes, the frogs were anesthetized with 2 g/L of tricaine methanesulfonate, and the ovarian lobes were mechanically separated with forceps. The oocytes were incubated for 120 min in an OR2 solution containing in mM: NaCl 82.5, KCl 2, MgCl2 1, HEPES 5 (pH 7.5) supplemented with 2 mg/ml of collagenase II (Sigma) to remove residual connective tissue and obtain individual oocytes. Subsequently, the oocytes were washed with a ND96 solution containing in mM: NaCl 96, KCl 2, CaCl2 1.8, MgCl2 1, HEPES 5 (pH 7.5, adjusted with NaOH) and stored at 18 °C in ND96 solution supplemented with 1 ml of gentamicin (50 mg/L), sodium pyruvate (275 mg/L) and (90 mg/L) theophylline (inhibits further oocyte maturation) before and after RNA injection.
(§3) In order to overexpress the channel in the oocyte, each of the channels to be measured was subcloned (complementary DNA (cDNA); human TASK-1 (KCNK3, NM_002246), h KV1.5 (KCNA5, NM_002234), h NaV1.5 (hH1, M77235), TASK-4/TALK-2 (KCNK17, NM_AF358910), TREK-1 (KCNK2, AF004711) and Kir2.1 (KCNJ2, NM_017296) into pSGEM, pBF1 or pSP64 expression vector, and the cDNA was linearized with NheI or MluI. Complementary RNA (cRNA) was synthesized with the mMESSAGE mMACHINE-Kit (Ambion). The quality of the cRNA was tested on an agarose gel by electrophoresis. cRNA was quantified using a UV-Vis spectrophotometer (NanoDrop 2000). Subsequently, the channel was transfected in the oocytes in stages V and VI, for which […] (TASK-1, KV1.5 or TREK-1), 10 ng (NaV1.5 or TASK-4) o 2.5 ng (Kir2.1) per oocyte of cRNA was injected with a NanojectII microinjector (Drummond Scientific). The oocytes were stored in 24-well plates for 24 to 48 h at 18 °C. After this time, the overexpression of each channel was monitored through electrophysiology.
(§4) Two-electrode voltage clamp measurements were performed 24 or 48 h after cRNA injection at room temperature (20–22 °C) in ND96 recording solution with a TurboTEC-10CD (npi) amplifier and a Digidata 1550B (for TASK-1 and KV1.5) and 1440A (for NaV1.5) A/D converter from Axon Instruments. Micropipettes were fabricated from GB 150 TF-8P borosilicate glass capillaries (Science Products) elongated in a DMZ-Universal Puller (Zeitz, Germany). […] ND96 was used as bath solution. Data acquisition was performed using Clampex 10 software (Axon Instruments), and data were analyzed with ClampFit 10 (Axon Instruments) and Origin 7 (Origin Lab Corporation).
(§5) For compound inhibition testing, from a holding potential of −80 mV a first test pulse to 0 mV of 1 s duration was followed by a repolarization step at −80 mV for 1 s, directly followed by another 1 s test pulse at +40 mV. The sweep time interval was 10 s for KV1.5 and TASK-1 channels. For the NaV1.5 channel, the block was analyzed with voltage steps from a holding potential of −80 mV. A first depolarizing pulse to −30 mV of 50 ms duration was applied, followed by a 5 ms step to −80 mV. The sweep time interval was 5 s. The compounds were applied at different concentrations to determine the half-maximal inhibitory concentration (IC50), using a fit to the Hill equation.
(§6) To test for a putative voltage-dependence of the block by the compound 6f in KV1.5, a 1.5 s voltage step protocol from −80 to +80 mV with +20 mV increments was used. The holding potential was −80 mV and the sweep time interval was 10 s. Currents were analyzed at the end of the voltage pulse. For TASK-1, voltage-dependence of block was probed using a high-potassium solution (KD96) containing in mM: KCl 96, NaCl 2, CaCl2 1.8, MgCl2 1, HEPES 5, (pH 7.5, adjusted with KOH). From a holding potential of 0 mV, voltage was stepped from −80 mV to +80 mV for 1.5 s in +20 mV steps every 10 s. […]

human TASK-1 = human TASK-1 (Homo sapiens, UniProt O14649); assay: TEVC recordings in X. laevis oocytes, TASK-1; type: cell-based; parameters: human TASK-1 (KCNK3, NM_002246); expressed in transfected cells; host or cells: Xenopus laevis oocytes injected with cRNA; details: 100 μM, +40 mV, oocytes, mean ± SD
Chain of human TASK-1 (O14649 whole entry): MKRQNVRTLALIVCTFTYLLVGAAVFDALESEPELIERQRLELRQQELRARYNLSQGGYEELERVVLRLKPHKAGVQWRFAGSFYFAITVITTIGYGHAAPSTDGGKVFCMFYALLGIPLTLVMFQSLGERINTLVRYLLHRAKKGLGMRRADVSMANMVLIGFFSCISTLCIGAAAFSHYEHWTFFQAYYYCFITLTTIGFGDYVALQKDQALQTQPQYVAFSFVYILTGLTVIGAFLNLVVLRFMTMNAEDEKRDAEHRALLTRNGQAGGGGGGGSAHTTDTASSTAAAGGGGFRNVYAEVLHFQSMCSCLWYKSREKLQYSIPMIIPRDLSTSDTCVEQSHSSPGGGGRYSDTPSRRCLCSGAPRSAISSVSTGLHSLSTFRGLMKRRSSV
Method: as §1, §2, §3, §4, §5, §6

virtual atria with AF = test system: virtual atria with AF; parameters: method as in PMID 37475475, PMID 38870348; details: ref [74], [75]; cited from earlier work
human erythrocytes = assay: Hemolysis assay; type: cell-based; details: 0.2–400 μM, 2 hours, 37 °C
Method: To evaluate cytotoxicity, the hemolysis of the compounds with the best simultaneous blocking activity on the channels (6e, 6f, 7a, 7b and 7c) was considered, modifying the protocol of Chen 2018 ([112]). Thus, non-heparinized human blood was collected. Erythrocytes were washed three times in 1× PBS (phosphate-buffered saline: NaCl, 8 g/L; KCl, 0.2 g/L; Na2HPO4, 1.44 g/L; and KH2PO4, 0.24 g/L; pH 7.4) and then used to prepare a 3% red blood cell (RBC) suspension. The assay was performed in a 96-well polypropylene microplate.
The compounds were prepared from 200 mM stock solutions in DMSO. Subsequently, 1:2 serial dilutions were made in 1× PBS, with final concentrations from 400 to 0.2 μM to a final volume of 200 μl per well. The microplate was incubated for 2 h at 37 °C and centrifuged at 3400 rpm for 5 min. Finally, 100 μl of the supernatant was transferred and measured in a 96-well plate. Hemoglobin release was monitored by photometric analysis of the supernatant at 540 nm using an Epoch Microplate Spectrophotometer (BioTek Instruments, Inc. Winooski, Vermont 05404-0998).
A 3% RBC suspension treated with Tween 20 was used to obtain total lysis as a positive control. Other authors who performed hemolysis assays have also considered this and other detergents, such as Triton X-100 and Sodium Dodecyl Sulfate (SDS) as positive controls ([113], [114], [115], [116]). The negative control was a suspension of red blood cells with PBS. Each experiment was performed in triplicate at all concentrations used. The percentage of hemolysis was calculated with the following (Equation 1), where Ad: absorbance of the dilution, A0: absorbance of the blank (RBC suspension with PBS), and At: total absorbance (positive control).(1) %hemolysis=Ad−A0/At−A0x100

h NaV1.5 = molecular target: T2, h NaV1.5 (Homo sapiens, UniProt Q14524, R1027Q); assay: TEVC recordings in X. laevis oocytes, NaV1.5; type: cell-based; details: 100 μM, −30 mV, oocytes, mean ± SD
T2 construct: expressed in transfected cells; host or cells: Xenopus laevis oocytes injected with cRNA
T2 sequence (Q14524 whole entry R1027Q): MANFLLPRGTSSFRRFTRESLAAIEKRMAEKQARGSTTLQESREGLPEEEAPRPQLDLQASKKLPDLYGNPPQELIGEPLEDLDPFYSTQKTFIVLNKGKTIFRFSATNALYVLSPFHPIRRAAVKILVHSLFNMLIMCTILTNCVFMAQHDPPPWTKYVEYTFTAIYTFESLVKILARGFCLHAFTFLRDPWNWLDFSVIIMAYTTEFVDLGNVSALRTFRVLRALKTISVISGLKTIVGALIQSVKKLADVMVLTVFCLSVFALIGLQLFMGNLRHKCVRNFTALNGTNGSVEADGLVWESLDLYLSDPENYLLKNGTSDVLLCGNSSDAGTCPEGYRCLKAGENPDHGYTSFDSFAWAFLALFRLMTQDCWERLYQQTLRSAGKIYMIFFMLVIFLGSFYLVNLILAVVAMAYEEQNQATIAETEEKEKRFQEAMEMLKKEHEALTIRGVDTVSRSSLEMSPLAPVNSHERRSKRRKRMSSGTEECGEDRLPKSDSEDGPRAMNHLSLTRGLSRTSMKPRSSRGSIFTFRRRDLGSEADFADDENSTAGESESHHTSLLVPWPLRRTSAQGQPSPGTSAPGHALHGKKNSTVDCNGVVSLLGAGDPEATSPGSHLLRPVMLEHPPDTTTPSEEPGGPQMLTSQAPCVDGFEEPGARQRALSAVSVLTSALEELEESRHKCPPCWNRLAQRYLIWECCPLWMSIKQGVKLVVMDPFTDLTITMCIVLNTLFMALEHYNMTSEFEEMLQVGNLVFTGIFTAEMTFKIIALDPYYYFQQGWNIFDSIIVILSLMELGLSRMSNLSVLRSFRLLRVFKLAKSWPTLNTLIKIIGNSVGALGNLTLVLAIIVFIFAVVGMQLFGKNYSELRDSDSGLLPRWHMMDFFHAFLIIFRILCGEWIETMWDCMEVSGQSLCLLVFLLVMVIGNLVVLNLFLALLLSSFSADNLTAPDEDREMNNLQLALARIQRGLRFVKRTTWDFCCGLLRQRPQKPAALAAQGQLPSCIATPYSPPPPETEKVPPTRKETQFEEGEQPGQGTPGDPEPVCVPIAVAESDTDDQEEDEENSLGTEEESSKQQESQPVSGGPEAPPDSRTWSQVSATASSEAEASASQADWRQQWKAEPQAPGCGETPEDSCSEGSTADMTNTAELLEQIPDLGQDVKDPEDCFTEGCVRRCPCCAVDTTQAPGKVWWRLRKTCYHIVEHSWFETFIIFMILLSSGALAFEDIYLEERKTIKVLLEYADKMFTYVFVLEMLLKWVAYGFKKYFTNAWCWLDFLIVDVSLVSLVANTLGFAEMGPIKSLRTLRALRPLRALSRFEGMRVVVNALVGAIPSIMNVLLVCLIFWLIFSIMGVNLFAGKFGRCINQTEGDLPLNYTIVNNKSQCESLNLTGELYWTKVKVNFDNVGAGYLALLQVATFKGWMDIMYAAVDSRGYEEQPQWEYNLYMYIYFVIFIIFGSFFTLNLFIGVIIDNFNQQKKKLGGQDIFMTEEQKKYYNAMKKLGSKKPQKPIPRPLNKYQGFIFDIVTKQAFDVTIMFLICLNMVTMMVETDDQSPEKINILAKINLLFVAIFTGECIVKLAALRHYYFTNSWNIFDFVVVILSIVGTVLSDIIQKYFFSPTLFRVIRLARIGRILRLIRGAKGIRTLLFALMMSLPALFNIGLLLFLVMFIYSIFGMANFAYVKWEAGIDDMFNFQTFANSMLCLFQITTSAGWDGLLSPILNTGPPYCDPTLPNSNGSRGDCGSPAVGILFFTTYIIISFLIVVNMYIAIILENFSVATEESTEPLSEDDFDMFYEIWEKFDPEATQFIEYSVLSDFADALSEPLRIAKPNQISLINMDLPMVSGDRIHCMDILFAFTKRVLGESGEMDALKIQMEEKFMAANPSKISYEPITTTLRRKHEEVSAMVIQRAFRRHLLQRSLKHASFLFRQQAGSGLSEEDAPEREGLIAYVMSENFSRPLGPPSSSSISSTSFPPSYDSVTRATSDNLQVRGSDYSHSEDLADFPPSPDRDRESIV
Method: as §2, §3, §4, §5
To test for a putative voltage-dependence of the block by the compound 6f in KV1.5, a 1.5 s voltage step protocol from −80 to +80 mV with +20 mV increments was used. The holding potential was −80 mV and the sweep time interval was 10 s. Currents were analyzed at the end of the voltage pulse. For TASK-1, voltage-dependence of block was probed using a high-potassium solution (KD96) containing in mM: KCl 96, NaCl 2, CaCl2 1.8, MgCl2 1, HEPES 5, (pH 7.5, adjusted with KOH). From a holding potential of 0 mV, voltage was stepped from −80 mV to +80 mV for 1.5 s in +20 mV steps every 10 s. To determine the current-voltage relationship of the NaV1.5 channel, the voltage was stepped for 50 ms from a holding potential of −80 mV to −70 mV to +80 mV in +10 mV increments every 5 s. The peak currents were subsequently plotted against the respective applied voltages.

KV1.5 = test system: KV1.5; parameters: method as in PMID 33817777; details: X. laevis oocytes, ref [15], read-out: Reported IC50 KV1.5, cited from earlier work
TASK-1 = test system: TASK-1; parameters: method as in PMID 21946151; details: HEK-293 cells; ref [38]; read-out: Reported IC50 TASK-1; cited from earlier work
NaV1.5 [1] = details: X. laevis oocytes, racemic (R/S) compound; ref [39]; read-out: Reported IC50 NaV1.5; cited from earlier work
NaV1.5 [2] = details: HEK-293 cells, racemic (R/S) compound, NaV1.5 open state; ref [40]; read-out: Reported IC50 NaV1.5; cited from earlier work

Compound: O=C(NCC1CCCCN1)c1cc(OCC(F)(F)F)ccc1OCC(F)(F)F (stereo not shown) [flecainide]
Cardioversion efficacy in other simulation studies (virtual atria with AF): 48–70%

Compound: CCCCN1CCCCC1C(=O)Nc1c(C)cccc1C (stereo not shown) [Bupivacaine, bupivacaine]
IC50 (KV1.5; racemic (R/S) compound): 31 µM | IC50 (TASK-1): 12.1 µM | IC50 (NaV1.5 [1]): 4.5 µM

Compound: CCCN1CCCC[C@H]1C(=O)Nc1c(C)cccc1C [Ropivacaine, ropivacaine]
IC50 (NaV1.5 [2]): 322 µM | IC50 (TASK-1): 17.6 µM

Compound: CCCN1CCCC[C@H]1C(=O)Nc1c(C)cccc1C [ropivacaineS]
IC50 (KV1.5; S enantiomer): 129 µM

Compound: CCCCc1oc2ccccc2c1C(=O)c1cc(I)c(OCCN(CC)CC)c(I)c1 [amiodarone]
Cardioversion efficacy in other simulation studies (virtual atria with AF): 57–80%

Compound: COc1ccc(CCO[C@@H]2CCCC[C@H]2N2CC[C@@H](O)C2)cc1OC [vernakalant]
Cardioversion efficacy in other simulation studies (virtual atria with AF): 42–57%

Continued, in another order:

inhibition at 100 µM (h KV1.5): 12.3 to 35.7% | inhibition at 100 µM (human TASK-1): 88.3 ± 6.57%
Compound: CCCCN(CCCC)CC(=O)Nc1ccccc1C [Compound 6a, 2-(dibutylamine)-N-(o-tolyl)acetamide]

inhibition at 100 µM (h KV1.5): 35.7 ± 18.3% | inhibition at 100 µM (human TASK-1): 89.3 ± 6.56%
Compound: CCCCN(CCCC)C(C)C(=O)Nc1cccc2ccccc12 (stereo not shown) [Compound 7c, 2-(dibutylamine)-N-(naphthalen-1-yl)propanamide]
Hemolytic effect (human erythrocytes): no hemolytic effect | inhibition at 100 µM (h NaV1.5): 31.1 ± 13.7%

inhibition at 100 µM (h KV1.5): 38 ± 16.1%
Compound: CCCCN(CCCC)C(C)C(=O)Nc1ccc(OC)cc1 (stereo not shown) [Compound 7a, 2-(dibutylamine)-N-(4-methoxiphenyl)propanamide]
Hemolytic effect (human erythrocytes): no hemolytic effect | inhibition at 100 µM (h NaV1.5): 11.9 ± 15%

inhibition at 100 µM (h KV1.5): 42.2 ± 21.2%
Compound: CCCCN(CCCC)CC(=O)Nc1ccc(OC)cc1 [Compound 6e, 2-(dibutylamine)-N-(4-methoxiphenyl)acetamide]
Hemolytic effect (human erythrocytes): no hemolytic effect | inhibition at 100 µM (h NaV1.5): 81.2 ± 19%

inhibition at 100 µM (h KV1.5): 12.3 to 35.7%
Compound: CCCCN(CCCC)C(C)C(=O)Nc1cc(C)cc(C)c1 (stereo not shown) [Compound 7d, 2-(dibutylamine)-N-(3,5-dimetilphenyl)propanamide]

inhibition at 100 µM (h KV1.5): 12.3 to 35.7%
Compound: CCCCN(CCCC)CC(=O)Nc1ccccc1CC [Compound 6b, 2-(dibutylamine)-N-(2-ethylphenyl)acetamide]

inhibition at 100 µM (h KV1.5): 12.3 ± 6.01%
Compound: Cc1cc(C)cc(NC(=O)CN(C(C)C)C(C)C)c1 [Compound 6d, 2-(diisopropylamine)-N-(3,5-dimetylphenyl)acetamide]

inhibition at 100 µM (h KV1.5): 12.3 to 35.7%
Compound: CCCCN(CCCC)CC(=O)Nc1cc(C)cc(C)c1 [Compound 6c, 2-(dibutylamine)-N-(3,5-dimethylphenyl)acetamide]

inhibition at 100 µM (h KV1.5): 36.9 ± 13.6%
Compound: CCCCN(CCCC)C(C)C(=O)Nc1ccccc1C (stereo not shown) [Compound 7b, 2-(dibutylamine)-N-(o-tolyl)propanamide]
Hemolytic effect (human erythrocytes): no hemolytic effect | inhibition at 100 µM (h NaV1.5): 58.9 ± 21.2%
